Laboratory results from patent publication US10669272B2, “Substituted naphthyridinone compounds useful as T cell activators” (BRISTOL-MYERS SQUIBB COMPANY, priority 2018, dated 2020).
Where two headings read alike, the source gives them in different places.

Key:
[1] = molecular target: T1, human DGKζ (Homo sapiens, UniProt Q13574); assay: DGKζ LIPGLO assay (extruded liposome substrate), in vitro DGK inhibition; type: biochemical; conditions: read-out: DGKz LIPGLO IC50
T1 construct: TVMV protease cleavage site (C); Hexa-His (C); made in house; host or cells: Sf9 insect cells (baculovirus, Bac-to-Bac)
T1 sequence (Q13574 with tags, fused parts or gaps isoform Q13574-4): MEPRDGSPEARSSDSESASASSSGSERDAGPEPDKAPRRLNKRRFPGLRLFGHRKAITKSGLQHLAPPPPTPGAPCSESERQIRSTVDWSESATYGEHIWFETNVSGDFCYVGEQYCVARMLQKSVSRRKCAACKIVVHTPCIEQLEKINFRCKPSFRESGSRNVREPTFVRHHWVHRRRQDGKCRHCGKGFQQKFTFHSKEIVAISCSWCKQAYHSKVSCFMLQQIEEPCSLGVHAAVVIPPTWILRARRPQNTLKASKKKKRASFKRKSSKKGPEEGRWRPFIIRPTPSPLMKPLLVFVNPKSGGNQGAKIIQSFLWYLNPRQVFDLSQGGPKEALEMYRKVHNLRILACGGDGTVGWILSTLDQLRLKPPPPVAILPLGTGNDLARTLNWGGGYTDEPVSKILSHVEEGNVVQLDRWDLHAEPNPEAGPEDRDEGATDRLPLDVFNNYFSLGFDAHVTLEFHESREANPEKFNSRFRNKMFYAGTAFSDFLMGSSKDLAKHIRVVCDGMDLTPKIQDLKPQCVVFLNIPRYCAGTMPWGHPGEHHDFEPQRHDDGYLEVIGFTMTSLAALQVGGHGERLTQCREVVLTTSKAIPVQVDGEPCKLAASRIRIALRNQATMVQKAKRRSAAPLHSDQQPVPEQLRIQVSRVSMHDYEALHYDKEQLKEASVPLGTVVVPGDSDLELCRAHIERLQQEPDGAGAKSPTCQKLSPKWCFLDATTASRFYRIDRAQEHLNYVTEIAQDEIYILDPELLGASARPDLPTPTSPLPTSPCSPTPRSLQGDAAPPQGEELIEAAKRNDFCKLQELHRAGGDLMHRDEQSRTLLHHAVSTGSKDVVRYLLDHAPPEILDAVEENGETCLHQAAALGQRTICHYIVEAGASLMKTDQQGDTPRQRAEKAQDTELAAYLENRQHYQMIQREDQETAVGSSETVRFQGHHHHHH

[2] = molecular target: T2, human DGKα (Homo sapiens, UniProt P23743); assay: DGKα LIPGLO assay (extruded liposome substrate), in vitro DGK inhibition; type: biochemical; conditions: read-out: DGKa LIPGLO IC50
T2 construct: TVMV protease cleavage site (C); Hexa-His (C); made in house; host or cells: Sf9 insect cells (baculovirus, Bac-to-Bac)
T2 sequence (P23743 with tags, fused parts or gaps): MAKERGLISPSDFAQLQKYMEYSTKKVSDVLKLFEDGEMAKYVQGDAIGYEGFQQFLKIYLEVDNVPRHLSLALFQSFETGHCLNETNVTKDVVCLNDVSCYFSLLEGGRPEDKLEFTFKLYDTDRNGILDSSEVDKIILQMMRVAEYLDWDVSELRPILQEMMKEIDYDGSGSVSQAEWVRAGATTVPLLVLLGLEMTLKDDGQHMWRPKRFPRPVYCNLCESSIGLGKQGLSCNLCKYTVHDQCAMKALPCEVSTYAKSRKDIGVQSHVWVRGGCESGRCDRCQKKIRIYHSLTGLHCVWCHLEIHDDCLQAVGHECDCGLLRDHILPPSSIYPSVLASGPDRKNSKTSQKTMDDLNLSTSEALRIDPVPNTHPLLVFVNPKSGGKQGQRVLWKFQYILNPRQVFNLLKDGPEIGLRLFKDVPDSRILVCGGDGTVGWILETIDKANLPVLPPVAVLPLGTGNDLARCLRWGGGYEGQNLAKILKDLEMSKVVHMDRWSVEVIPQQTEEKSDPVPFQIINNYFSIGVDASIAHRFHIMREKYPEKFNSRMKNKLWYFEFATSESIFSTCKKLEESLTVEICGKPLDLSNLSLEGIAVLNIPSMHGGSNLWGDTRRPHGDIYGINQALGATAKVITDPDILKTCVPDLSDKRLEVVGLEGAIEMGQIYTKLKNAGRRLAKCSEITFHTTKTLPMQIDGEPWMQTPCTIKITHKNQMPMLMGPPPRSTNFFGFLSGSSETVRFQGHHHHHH

Cn1c(=O)cc(N2CCN(C(c3ccc(F)cc3)c3ccc(F)cc3)C(COC(F)F)C2)c2nc(C#N)ccc21 (single isomer, unassigned) [Example 1187]
IC50 ([1]; liposome (LIPGLO) assay): 2900 nM | IC50 ([2]; liposome (LIPGLO) assay): 150000 nM

Cc1nc2c(C(C)N3C[C@H](C)N(c4cc(=O)n(C)c5ccc(C#N)nc45)C[C@H]3C)cccc2o1 (single isomer, unassigned) [Example 1261]
IC50 ([1]; liposome (LIPGLO) assay): 1100 nM | IC50 ([2]; liposome (LIPGLO) assay): 4200 nM

C[C@@H]1CN(c2cc(=O)n(C)c3ccc(C#N)nc23)[C@@H](C)CN1C(c1ccc(Cl)cc1)c1ccncn1 (single isomer, unassigned) [Example 397]
IC50 ([1]; liposome (LIPGLO) assay): 16000 nM | IC50 ([2]; liposome (LIPGLO) assay): 1800 nM

C[C@@H]1CN(c2c(C#N)c(=O)n(C)c3ccc(C#N)nc23)CCN1C(c1ccc(F)cc1)c1cccc2c1OC(C)(C)C2 (single isomer, unassigned) [Example 935]
IC50 ([1]; DGKζ liposome (LIPGLO) assay): 1800 nM | IC50 ([2]; DGKα liposome (LIPGLO) assay): 1900 nM

CC(c1ccccn1)N1CCN(c2c(C#N)c(=O)n(C)c3ccc(C#N)nc23)C[C@H]1C (single isomer, unassigned) [Example 965]
IC50 ([1]; DGKζ liposome (LIPGLO) assay): 60000 nM | IC50 ([2]; DGKα liposome (LIPGLO) assay): 960 nM

CC(c1ccc(OC(F)(F)F)cc1)N1C[C@@H](C)N(c2cc(=O)n(C)c3ccc(C#N)nc23)C[C@@H]1CO (single isomer, unassigned) [Example 1180]
IC50 ([1]; liposome (LIPGLO) assay): 1400 nM | IC50 ([2]; liposome (LIPGLO) assay): 7600 nM

CC(c1ccc(OC(F)F)cc1)N1C[C@H](C)N(c2c(C#N)c(=O)n(C)c3ccc(C#N)nc23)C[C@H]1C (single isomer, unassigned) [Example 1376]
IC50 ([1]; liposome (LIPGLO) assay): 17000 nM | IC50 ([2]; liposome (LIPGLO) assay): 840 nM

CC(c1ccc(F)cc1)N1C[C@H](C)N(c2c(C#N)c(=O)n(C)c3ccc(C#N)nc23)C[C@H]1C (single isomer, unassigned) [Example 783]
IC50 ([1]; DGKζ liposome (LIPGLO) assay): > 250000 nM | IC50 ([2]; DGKα liposome (LIPGLO) assay): 1200 nM

CC[C@H]1CN(C(c2ccc(F)cc2)c2nc(C3CC3)cs2)[C@H](CC)CN1c1cc(=O)n(C)c2ccc(C#N)nc12 (some centres unmarked) [Example 1066]
IC50 ([1]; liposome (LIPGLO) assay): 30 nM | IC50 ([2]; liposome (LIPGLO) assay): 28 nM

CC[C@@H]1CN(c2cc(=O)n(C)c3ccc(C#N)nc23)[C@@H](CC)CN1Cc1ccc(F)cc1 [Example 1061]
IC50 ([1]; liposome (LIPGLO) assay): 100 nM | IC50 ([2]; liposome (LIPGLO) assay): 11 nM

Cc1ccc(CCN2C[C@H](C)N(c3cc(=O)n(C)c4ccc(C#N)nc34)C[C@H]2C)cc1 [Example 633]
IC50 ([1]; liposome (LIPGLO) assay): 10000 nM | IC50 ([2]; liposome (LIPGLO) assay): 6700 nM

CCOC[C@@H]1CN(c2cc(=O)n(C)c3ccc(C#N)nc23)[C@@H](C)CN1C(C)c1ccc(OC(F)(F)F)cc1 (single isomer, unassigned) [Example 1398]
IC50 ([1]; liposome (LIPGLO) assay): 1600 nM | IC50 ([2]; liposome (LIPGLO) assay): 5500 nM

C[C@@H]1CN(c2cc(=O)n(C)c3ccc(C#N)nc23)[C@@H](C)CN1C(c1ccc(F)cc1)c1noc(C(C)(C)C)n1 (single isomer, unassigned) [Example 765]
IC50 ([1]; DGKζ liposome (LIPGLO) assay): 130 nM | IC50 ([2]; DGKα liposome (LIPGLO) assay): 620 nM

Cc1ccc(CN2CCN(c3c(C#N)c(=O)n(C)c4ccc(C#N)nc34)C[C@H]2C)cc1 [Example 1007]
IC50 ([1]; DGKζ liposome (LIPGLO) assay): 3900 nM | IC50 ([2]; DGKα liposome (LIPGLO) assay): 420 nM

C[C@@H]1CN(c2c(C#N)c(=O)n(C)c3ccc(C#N)nc23)CCN1Cc1c(F)cccc1Cl [Example 984]
IC50 ([1]; DGKζ liposome (LIPGLO) assay): 880 nM | IC50 ([2]; DGKα liposome (LIPGLO) assay): 1500 nM

CC[C@@H]1CN(c2cc(=O)n(C)c3ccc(C#N)nc23)[C@@H](C)CN1C(C)c1ccc(Cl)cc1F (single isomer, unassigned) [Example 1353]
IC50 ([1]; liposome (LIPGLO) assay): 510 nM | IC50 ([2]; liposome (LIPGLO) assay): 460 nM

Cc1ccnc(C(c2ccc(Cl)cc2)N2C[C@H](C)N(c3cc(=O)n(C)c4ccc(C#N)nc34)C[C@H]2C)c1 (single isomer, unassigned) [Example 364]
IC50 ([1]; liposome (LIPGLO) assay): 3900 nM | IC50 ([2]; liposome (LIPGLO) assay): 1600 nM

CC(c1ccc(C(=O)O)cc1)N1C[C@H](C)N(c2c(C#N)c(=O)n(C)c3ccc(C#N)nc23)C[C@H]1C (some centres unmarked) [Example 787]
IC50 ([1]; DGKζ liposome (LIPGLO) assay): 83000 nM | IC50 ([2]; DGKα liposome (LIPGLO) assay): 200000 nM

C[C@@H]1CN(C(c2ccc(F)cc2)c2ccc(C#N)cc2)[C@@H](CO)CN1c1cc(=O)n(C)c2ccc(C#N)nc12 (single isomer, unassigned) [Example 1176]
IC50 ([1]; liposome (LIPGLO) assay): 2900 nM | IC50 ([2]; liposome (LIPGLO) assay): 12000 nM

C[C@@H]1CN(c2cc(=O)n(C)c3ccc(C#N)nc23)[C@@H](C)CN1C(c1ccc(OC(F)(F)F)cc1F)C1CC1 (stereo partly drawn) [Example 481, 8-((2S,5R)-4-(cyclopropyl(2-fluoro-4-(trifluoromethoxy)phenyl)methyl)-2,5-dimethylpiperazin-1-yl)-5-methyl-6-oxo-5,6-dihydro-1,5-naphthyridine-2-carbonitrile]
IC50 ([1]; liposome (LIPGLO) assay): 1800 nM | IC50 ([2]; liposome (LIPGLO) assay): 1400 nM

CCC(c1ccc(OC(F)(F)F)cc1F)N1C[C@H](CC)N(c2cc(=O)n(C)c3ccc(C#N)nc23)C[C@H]1CC (single isomer, unassigned) [Example 1058]
IC50 ([1]; liposome (LIPGLO) assay): 570 nM | IC50 ([2]; liposome (LIPGLO) assay): 750 nM

CC(c1c(F)cc(F)cc1F)N1C[C@H](C)N(c2cc(=O)n(C)c3ccc(C#N)nc23)C[C@H]1C (single isomer, unassigned) [Example 488]
IC50 ([1]; liposome (LIPGLO) assay): 11000 nM | IC50 ([2]; liposome (LIPGLO) assay): 15000 nM

Cc1cccc(CN2CCN(c3c(C#N)c(=O)n(C)c4ccc(C#N)nc34)C[C@H]2C)c1 [Example 1012]
IC50 ([1]; DGKζ liposome (LIPGLO) assay): 1400 nM | IC50 ([2]; DGKα liposome (LIPGLO) assay): 350 nM

C[C@@H]1CN(c2cc(=O)n(C)c3ccc(C#N)nc23)[C@@H](C)CN1C(c1ccc(F)cc1)c1cnccn1 (single isomer, unassigned) [Example 674]
IC50 ([1]; liposome (LIPGLO) assay): 4300 nM | IC50 ([2]; liposome (LIPGLO) assay): 400 nM

C[C@@H]1CN(c2c(C#N)c(=O)n(C)c3ccc(C#N)nc23)[C@@H](C)CN1C(c1ccc(F)cc1)c1cscn1 (single isomer, unassigned) [Example 856]
IC50 ([1]; DGKζ liposome (LIPGLO) assay): 5600 nM | IC50 ([2]; DGKα liposome (LIPGLO) assay): 330 nM

Cc1ccc(C(c2ccc(F)cc2Cl)N2CCN(c3c(C#N)c(=O)n(C)c4ccc(C#N)nc34)C[C@H]2C)nc1 (some centres unmarked) [Example 938]
IC50 ([1]; DGKζ liposome (LIPGLO) assay): 2800 nM | IC50 ([2]; DGKα liposome (LIPGLO) assay): 5900 nM

C[C@@H]1CN(c2cc(=O)n(C)c3ccc(C#N)nc23)[C@@H](C)CN1C(c1ccc(F)cc1)c1cncc(F)c1 (stereo partly drawn) [Example 400, 8-((2S,5R)-4-((4-fluorophenyl)(5-fluoropyridin-3-yl)methyl)-2,5-dimethylpiperazin-1-yl)-5-methyl-6-oxo-5,6-dihydro-1,5-naphthyridine-2-carbonitrile]
IC50 ([1]; liposome (LIPGLO) assay): 3200 nM | IC50 ([2]; liposome (LIPGLO) assay): 4200 nM

COC(=O)c1ccc(C(C)N2CCN(c3c(C#N)c(=O)n(C)c4ccc(C#N)nc34)C[C@H]2C)cc1 (some centres unmarked) [Example 980]
IC50 ([1]; DGKζ liposome (LIPGLO) assay): 13000 nM | IC50 ([2]; DGKα liposome (LIPGLO) assay): 5700 nM

CC[C@@H]1CN(c2cc(=O)n(C)c3ccc(C#N)nc23)[C@@H](C)CN1C(C)c1ccc(F)cc1F (single isomer, unassigned) [Example 1087]
IC50 ([1]; liposome (LIPGLO) assay): 86 nM | IC50 ([2]; liposome (LIPGLO) assay): 72 nM

C[C@@H]1CN(c2c(C#N)c(=O)n(C)c3ccc(C#N)nc23)CCN1C(c1ccc(Cl)cc1)c1ccc(F)cn1 (single isomer, unassigned) [Example 901]
IC50 ([1]; DGKζ liposome (LIPGLO) assay): 1700 nM | IC50 ([2]; DGKα liposome (LIPGLO) assay): 390 nM

CC[C@H]1CN(C(c2ccc(C)cc2)c2ccc(Cl)cc2)[C@H](C)CN1c1cc(=O)n(C)c2ccc(C#N)nc12 (single isomer, unassigned) [Example 1122]
IC50 ([1]; liposome (LIPGLO) assay): 840 nM | IC50 ([2]; liposome (LIPGLO) assay): 710 nM

CC[C@H]1CN(C(c2ccc(F)cc2)c2nc(C3CC3)no2)[C@H](CC)CN1c1cc(=O)n(C)c2ccc(C#N)nc12 (some centres unmarked) [Example 1064]
IC50 ([1]; liposome (LIPGLO) assay): 39 nM | IC50 ([2]; liposome (LIPGLO) assay): 80 nM

Cc1nc2ccc(C(C)N3C[C@H](C)N(c4cc(=O)n(C)c5ccc(C#N)nc45)C[C@H]3C)cc2s1 (single isomer, unassigned) [Example 1264]
IC50 ([1]; liposome (LIPGLO) assay): 3600 nM | IC50 ([2]; liposome (LIPGLO) assay): 10000 nM

CCC(c1ccc(OC(F)(F)F)cc1F)N1C[C@H](CC)N(c2cc(=O)n(C)c3ccc(C#N)nc23)C[C@H]1CC (single isomer, unassigned) [Example 1057]
IC50 ([1]; liposome (LIPGLO) assay): 40 nM | IC50 ([2]; liposome (LIPGLO) assay): 23 nM

C[C@@H]1CN(c2c(C#N)c(=O)n(C)c3ccc(C#N)nc23)CCN1C(c1ccc(Cl)cc1)c1ccc(C#N)cc1 (single isomer, unassigned) [Example 872]
IC50 ([1]; DGKζ liposome (LIPGLO) assay): 1400 nM | IC50 ([2]; DGKα liposome (LIPGLO) assay): 1500 nM

CC[C@H]1CN(C(C)c2cc(F)c(F)c(F)c2)[C@H](C)CN1c1cc(=O)n(C)c2ccc(C#N)nc12 (single isomer, unassigned) [Example 1382]
IC50 ([1]; liposome (LIPGLO) assay): 60 nM | IC50 ([2]; liposome (LIPGLO) assay): 660 nM

CCOc1cccc(CN2C[C@H](C)N(c3cc(=O)n(C)c4ccc(C#N)nc34)C[C@H]2C)c1 [Example 599]
IC50 ([1]; liposome (LIPGLO) assay): 1900 nM | IC50 ([2]; liposome (LIPGLO) assay): 3100 nM

COC(=O)c1ccc(C(C)N2C[C@H](C)N(c3c(C#N)c(=O)n(C)c4ccc(C#N)nc34)C[C@H]2C)cc1 (single isomer, unassigned) [Example 793]
IC50 ([1]; DGKζ liposome (LIPGLO) assay): 11000 nM | IC50 ([2]; DGKα liposome (LIPGLO) assay): 6900 nM

C[C@@H]1CN(c2cc(=O)n(C)c3ccc(C#N)nc23)[C@@H](C)CN1C(c1cccc(F)c1)c1ccccn1 (stereo partly drawn) [Example 404, 8-((2S,5R)-4-((3-fluorophenyl)(pyridin-2-yl)methyl)-2,5-dimethylpiperazin-1-yl)-5-methyl-6-oxo-5,6-dihydro-1,5-naphthyridine-2-carbonitrile]
IC50 ([1]; liposome (LIPGLO) assay): 4100 nM | IC50 ([2]; liposome (LIPGLO) assay): 360 nM

C[C@@H]1CN(c2c(C#N)c(=O)n(C)c3ccc(C#N)nc23)CCN1C(c1ccc(F)cc1)c1cnccn1 (some centres unmarked) [Example 943]
IC50 ([1]; DGKζ liposome (LIPGLO) assay): 6700 nM | IC50 ([2]; DGKα liposome (LIPGLO) assay): 1100 nM
